In the supplement of paper PMC8253809:

Key:
[1] = system: HABS (astrocyte control); test: growth inhibition relative to DMSO (0) and positive control (1) (fraction); higher = more growth inhibition
Method: (§1)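 Paxalisib (GDC0084) x mirdametinib (PD0325901) dose matrix on pHGG cell lines and astrocyte controls, 7 days, adherent 384-well. CellTiter-Glo RLU was normalised (no log2) to fractional activity between DMSO (0) and the positive control (1). Each combination was tested in two plate orientations.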

[2] = system: HGGX6 (H3.3 G34R paediatric high-grade glioma line); test: as above
Method: as §1

O=C(NOC[C@H](O)CO)c1ccc(F)c(F)c1Nc1ccc(I)cc1F + CC1(C)OCCn2c1nc1c(N3CCOCC3)nc(-c3cnc(N)nc3)nc12 [GDC0084]
growth inhibition
Details | compound 1 concentration 0.009766 µM | compound 1 concentration 0.01953 µM | compound 1 concentration 0.03906 µM | compound 1 concentration 0.07812 µM | compound 1 concentration 0.15625 µM | compound 1 concentration 0.3125 µM | compound 1 concentration 0.625 µM | compound 1 concentration 1.25 µM | compound 1 concentration 5 µM | compound 1 concentration 20 µM
[1], compound 2 concentration 0.03906 µM | -0.277 | -0.277 | -0.363 | -0.35 | -0.36 | -0.157 | 0.0702 | 0.206 | 0.655 | 0.785
[1], compound 2 concentration 0.07812 µM | -0.0837 | -0.115 | -0.185 | -0.276 | -0.182 | -0.0585 | 0.174 | 0.282 | 0.686 | 0.84
[1], compound 2 concentration 0.15625 µM | 0.00867 | -0.00819 | -0.125 | -0.152 | -0.102 | 0.0679 | 0.212 | 0.368 | 0.765 | 0.893
[1], compound 2 concentration 0.3125 µM | 0.0584 | 0.00491 | -0.0298 | -0.035 | -0.004 | 0.119 | 0.251 | 0.39 | 0.784 | 0.918
[1], compound 2 concentration 0.625 µM | 0.158 | 0.129 | 0.116 | 0.0817 | 0.117 | 0.224 | 0.337 | 0.487 | 0.849 | 0.948
[1], compound 2 concentration 1.25 µM | 0.352 | 0.341 | 0.305 | 0.259 | 0.336 | 0.387 | 0.482 | 0.573 | 0.912 | 0.98
[1], compound 2 concentration 5 µM | 0.731 | 0.725 | 0.702 | 0.703 | 0.706 | 0.689 | 0.739 | 0.792 | 0.974 | 0.997
[1], compound 2 concentration 20 µM | 0.963 | 0.956 | 0.951 | 0.939 | 0.938 | 0.927 | 0.938 | 0.957 | 0.998 | 1
[2], compound 2 concentration 0.03906 µM | -0.0587 | -0.133 | -0.0423 | -0.0209 | 0.0525 | 0.0544 | 0.136 | 0.172 | 0.433 | 0.608
[2], compound 2 concentration 0.07812 µM | 0.159 | 0.159 | 0.235 | 0.123 | 0.215 | 0.239 | 0.175 | 0.334 | 0.493 | 0.707
[2], compound 2 concentration 0.15625 µM | 0.0791 | 0.129 | 0.0602 | 0.134 | 0.0901 | 0.167 | 0.22 | 0.321 | 0.536 | 0.68
[2], compound 2 concentration 0.3125 µM | 0.217 | 0.19 | 0.195 | 0.14 | 0.172 | 0.319 | 0.322 | 0.391 | 0.572 | 0.713
[2], compound 2 concentration 0.625 µM | 0.371 | 0.37 | 0.329 | 0.373 | 0.258 | 0.373 | 0.432 | 0.457 | 0.633 | 0.748
[2], compound 2 concentration 1.25 µM | 0.572 | 0.523 | 0.53 | 0.483 | 0.467 | 0.501 | 0.53 | 0.544 | 0.679 | 0.799
[2], compound 2 concentration 5 µM | 0.709 | 0.727 | 0.714 | 0.72 | 0.705 | 0.725 | 0.719 | 0.747 | 0.798 | 0.86
[2], compound 2 concentration 20 µM | 0.867 | 0.859 | 0.851 | 0.861 | 0.86 | 0.852 | 0.866 | 0.859 | 0.887 | 0.947

CC1(C)OCCn2c1nc1c(N3CCOCC3)nc(-c3cnc(N)nc3)nc12 [GDC0084] + O=C(NOC[C@H](O)CO)c1ccc(F)c(F)c1Nc1ccc(I)cc1F [PD0325901]
growth inhibition
Details | compound 1 concentration 0.009766 µM | compound 1 concentration 0.01953 µM | compound 1 concentration 0.03906 µM | compound 1 concentration 0.07812 µM | compound 1 concentration 0.15625 µM | compound 1 concentration 0.3125 µM | compound 1 concentration 0.625 µM | compound 1 concentration 1.25 µM | compound 1 concentration 5 µM | compound 1 concentration 20 µM
[1], compound 2 concentration 0.03906 µM | -0.37 | -0.333 | -0.284 | -0.211 | -0.192 | -0.0322 | 0.16 | 0.363 | 0.773 | 0.974
[1], compound 2 concentration 0.07812 µM | -0.231 | -0.228 | -0.183 | -0.184 | -0.0583 | 0.0322 | 0.187 | 0.365 | 0.734 | 0.954
[1], compound 2 concentration 0.15625 µM | -0.225 | -0.157 | -0.11 | -0.0914 | 0.000284 | 0.0786 | 0.237 | 0.371 | 0.734 | 0.943
[1], compound 2 concentration 0.3125 µM | -0.0761 | -0.0499 | -0.0388 | 0.00861 | 0.0797 | 0.184 | 0.292 | 0.419 | 0.718 | 0.923
[1], compound 2 concentration 0.625 µM | 0.163 | 0.146 | 0.187 | 0.252 | 0.293 | 0.374 | 0.474 | 0.574 | 0.798 | 0.946
[1], compound 2 concentration 1.25 µM | 0.291 | 0.301 | 0.34 | 0.347 | 0.406 | 0.457 | 0.538 | 0.624 | 0.807 | 0.966
[1], compound 2 concentration 5 µM | 0.677 | 0.695 | 0.698 | 0.722 | 0.793 | 0.854 | 0.895 | 0.922 | 0.982 | 0.999
[1], compound 2 concentration 20 µM | 0.792 | 0.82 | 0.846 | 0.876 | 0.911 | 0.94 | 0.968 | 0.986 | 0.999 | 1
[2], compound 2 concentration 0.03906 µM | -0.0592 | -0.118 | -0.0557 | 0.0473 | 0.0152 | 0.16 | 0.251 | 0.451 | 0.708 | 0.857
[2], compound 2 concentration 0.07812 µM | 0.064 | -0.018 | -0.00542 | 0.0583 | 0.162 | 0.132 | 0.254 | 0.475 | 0.717 | 0.883
[2], compound 2 concentration 0.15625 µM | 0.0118 | 0.0255 | -0.000602 | 0.014 | 0.0815 | 0.2 | 0.302 | 0.466 | 0.711 | 0.857
[2], compound 2 concentration 0.3125 µM | 0.0282 | 0.112 | 0.0905 | 0.102 | 0.124 | 0.205 | 0.31 | 0.505 | 0.707 | 0.865
[2], compound 2 concentration 0.625 µM | 0.155 | 0.263 | 0.16 | 0.217 | 0.212 | 0.336 | 0.371 | 0.511 | 0.733 | 0.849
[2], compound 2 concentration 1.25 µM | 0.226 | 0.235 | 0.284 | 0.245 | 0.295 | 0.368 | 0.424 | 0.564 | 0.776 | 0.841
[2], compound 2 concentration 5 µM | 0.429 | 0.43 | 0.452 | 0.47 | 0.569 | 0.626 | 0.645 | 0.728 | 0.796 | 0.901
[2], compound 2 concentration 20 µM | 0.595 | 0.612 | 0.628 | 0.661 | 0.667 | 0.729 | 0.762 | 0.814 | 0.871 | 0.94
